Consider twelve compounds from US6667278B2, “Non-steroidal mimetics of brassinolide” (University Technologies International Inc., priority 2000, dated 2003).

The test system of data set [1] is dwarf rice Oryza satina var. Tan-ginbozu. As to the kind of experiment: rice leaf lamina inclination bioassay. The format is in vivo. On the procedure:
Mimetics 3-12, along with brassinolide for comparison, were subjected to the rice leaf lamina inclination bioassay^30. This technique is a rapid, highly sensitive and convenient means for detecting and measuring brassinosteroid bioactivity. Strongly active brassinosteroids such as brassinolide can be readily detected at doses as low as 1 ng/plant. The assay is based on the downward movement response of the second leaf lamina angle of rice seedlings to the application of active brassinosteroids. Thus, a decrease in the leaf angle occurs from about 160 degrees (i.e. nearly upright) in control plants to angles of less than 90 degrees when a strong response is measured. A plot of leaf lamina angle vs. the logarithm of the dose in ng provides a convenient indication of bioactivity.
Brassinosteroids show synergy with auxins such as indole-3-acetic acid (IAA) in this bioassay^7,30,31. Thus, co-application of a given dose of the brassinosteroid with IAA generally elicits a similar decrease in the leaf lamina angle as would be observed with a dose one or two orders of magnitude higher of the brassinosteroid alone. […] The bioassays of mimetics 3-12 were therefore run both in the presence and absence of 1000 ng of added IAA and mimetic 11 was also bioassayed in the presence of 5000 ng of IAA.
Mimetics 3-12, along with brassinolide as a standard, were tested for biological activity by means of the rice leaf lamina assay, using a dwarf rice Oryza satina var. Tan-ginbozu, as described^30. The compounds were dissolved in 95% ethanol, except for mimetic 11 where DMSO was used due to poor solubility in ethanol. To a solution of mimetic 11 in 50 microliters of DMSO was added 550 microliters of a 2.5% aqueous solution of Atlas®, an ICI formulating material, to improve uptake. The test solutions were then applied as 0.5 μl microdrops to the rice plants 48 h after planting the germinated seeds on 0.8% water agar. At high doses, several rounds of application of the 0.5 μl microdrops were required to attain the desired dose per plant. Where IAA was a co-treatment, 1,000 or 5,000 ng of IAA was similarly applied per plant ca. 2 h prior to the application of brassinolide and mimetics 3-12. The resultant leaf lamina angle was measured 60-65 h later. For an individual bioassay, each data point is the mean of the leaf angles from ca. 36 plants for doses up to 100 ng and from ca. 24 plants for the 1000 and 10,000 ng doses. Parallel control applications of solvent and IAA (1000 ng) were also carried out. […] Similarly, the results for brassinolide plus IAA, which were reported earlier,^14,16,17a are not shown here for purposes of clarity.

The nature of a further data set: solubility in ethanol. The format is physicochemical.
Data set [2] has as its system dwarf rice Oryza satina var. Tan-ginbozu. The following applies: in vivo; cited from earlier work.
The subject of another data set is rice, beans and others. The following applies: applied exogenously; cited from earlier work.
Setting [3] is: applied together with IAA in 95% ethanol.
Where [4] appears, read: all dosage levels, with or without IAA application.

Take `Oc1ccc(C=Cc2ccc(O)c3c2CC(O)C(O)C3)c2c1CC(O)C(O)C2` (mixture of isomers) [Mimetic 6, (E)-(±)-1,2-Bis[4,6α,7α-trihydroxy-5,6,7,8-tetrahydronaphthyl]ethene and its Meso Isomer]: in data set [1] (setting [3]), the “bioactivity in the rice leaf lamina inclination assay” value (from here on “bioactivity”) is recorded as “significant bioactivity” and the “dose that produced a significant bioassay response” value is 10000 ng. As for `O=C1CC=C(C#CC2=CCC(=O)C3CC(O)C(O)CC23)C2CC(O)C(O)CC12` (mixture of isomers) [Mimetic 10, (±)-1,2-Bis[trans-(4aα,8aβ)-4-oxo-6α,7α-dihydroxy-4a,5,6,7,8,8a-hexahydro-(3H)-naphthyl]ethyne and its Meso Isomer], in data set [1] (setting [4]), the “bioactivity” value is listed as “devoid of activity”.

Take `O=C1CC=C(C=CC2=CCC(=O)C3CC(O)C(O)CC23)C2CC(O)C(O)CC12` (mixture of isomers) [Mimetic 11, (E)-1,2-Bis[trans-(4aα,8aβ)-4-oxo-6α,7α-dihydroxy-4a,5,6,7,8,8a-hexahydro-(3H)-naphthyl]ethene and its Meso Isomer]: the “bioactivity” value in data set [1] (IAA increased to 5000 ng, DMSO diluted with 2.5% aqueous Atlas, compared with 1000 ng IAA) is on record as “even further enhanced”; in data set [1] (applied together with 1000 ng of IAA, DMSO diluted with 2.5% aqueous Atlas) it was “active across a wide range of doses”. Besides, the “dose at which significant activity is displayed” value in data set [1] (with 5000 ng of IAA, DMSO/Atlas) was determined as 0.01 ng. Also, the solubility in ethanol result in “solubility in ethanol” is given as “poor”. For `Oc1cc(C#Cc2ccc3c(c2)CC(O)C(O)C3)cc2c1CC(O)C(O)C2` (racemic) [Mimetic 4, (±)-1-[4,6α,7α-Trihydroxy-5,6,7,8-tetrahydronaphthyl]-2-[6α′,7α∝-dihydroxy-5′,6′,7′,8′-tetrahydronaphthyl]ethyne as Two (±) Pairs], the “bioactivity” value in data set [1] (setting [3]) is reported as “modest, but statistically significant activity”. Take `Oc1ccc(C#Cc2ccc(O)c3c2CC(O)C(O)C3)c2c1CC(O)C(O)C2` (single isomer, unassigned) [Mimetic 3, (±)-1,2-Bis[4,6α,7α-trihydroxy-5,6,7,8-tetrahydronaphthyl]ethyne and its Meso Isomer]: in data set [1] (setting [3]), the “bioactivity” value is reported as “modest, but statistically significant activity” and the “dose that produced a significant bioassay response” value is recorded as 10,000 ng. For `OC1Cc2ccc(C#Cc3ccc4c(c3)CC(O)C(O)C4)cc2CC1O` (single isomer, unassigned) [Mimetic 5, (±)-1,2-Bis[6α,7α-dihydroxy-5,6,7,8-tetrahydronaphthyl]ethyne and its Meso Isomer], the “bioactivity” value in data set [1] (setting [4]) was “completely inactive”.

On to `OC1Cc2ccc(/C=C/c3ccc4c(c3)CC(O)C(O)C4)cc2CC1O` (single isomer, unassigned) [Mimetic 7, (E)-(±)-1,2-Bis[6α,7α-dihydroxy-5,6,7,8-tetrahydronaphthyl]ethene and its Meso Isomer], for which, in data set [1] (setting [4]), the “bioactivity” value was “completely inactive”. Same read-out and setting: in the case of `Oc1ccc(CCc2ccc(O)c3c2CC(O)C(O)C3)c2c1CC(O)C(O)C2` (single isomer, unassigned) [Mimetic 8, (±)-1,2-Bis[4,6α,7α-trihydroxy-5,6,7,8-tetrahydronaphthyl]ethane and its Meso Isomer] it was “no bioactivity”. Regarding `O=C1CCC(=NN=C2CCC(=O)C3CC(O)C(O)CC23)C2CC(O)C(O)CC12` (single isomer, unassigned) [Mimetic 12, 6,7-Dihydroxy-2,3,4a,5,6,7,8,8a-octahydro-4-oxo-naphthalenone Azine (Mixture of Isomers)], in data set [1] (setting [4]), the “bioactivity” value is “devoid of activity”. With `O=C(O)Cc1c[nH]c2ccccc12` [IAA, indole-3-acetic acid, reference compound], in data set [1] (applied on its own), the “effect in the bioassay” value is on record as “without significant effect”. As to `Oc1cc2c(O)ccc(CCc3ccc(O)c4cc(O)c(O)cc34)c2cc1O` [Mimetic 9, 1,2-Bis(4,6,7-trihydroxynaphthyl)ethane], the “bioactivity” value in data set [1] (setting [4]) is listed as “no bioactivity”. As for `CC(C)[C@H](C)[C@@H](O)[C@H](O)[C@@H](C)[C@H]1CC[C@H]2[C@@H]3COC(=O)[C@H]4C[C@H](O)[C@H](O)C[C@]4(C)[C@H]3CC[C@]12C` [brassinolide, (22R, 23R, 24S)-2α,3α,22,23-tetrahydroxy-24-methyl-B-homo-7-oxa-5α-cholestan-6-one], the “dose as low as which readily detected” value in data set [2] is 1 ng/plant. For the same compound, in the data set with rice, beans and others, the “dose as low as which biological activity is manifested” value was “one”.
